Square brackets hold non-standard residues; d marks the D form. Ends that are not written are not given here. Peptide text beside a SMILES is read from it. pS = N[C@@H](COP(=O)(O)O)C(=O)O
T1: RSV N-RNA complex (full-length N protein in ring-shaped complexes with bacterial RNA) (human respiratory syncytial virus, UniProt P03418 1-391)
T1 construct: human RSV nucleoprotein N, full length; concentrations are of N protomer; also called N-RNA rings; source: in lysate for the co-purification; purified (glutathione-Sepharose, thrombin, Superdex 200) as N-RNA complex; copies: 10-11
T1 sequence (looked up): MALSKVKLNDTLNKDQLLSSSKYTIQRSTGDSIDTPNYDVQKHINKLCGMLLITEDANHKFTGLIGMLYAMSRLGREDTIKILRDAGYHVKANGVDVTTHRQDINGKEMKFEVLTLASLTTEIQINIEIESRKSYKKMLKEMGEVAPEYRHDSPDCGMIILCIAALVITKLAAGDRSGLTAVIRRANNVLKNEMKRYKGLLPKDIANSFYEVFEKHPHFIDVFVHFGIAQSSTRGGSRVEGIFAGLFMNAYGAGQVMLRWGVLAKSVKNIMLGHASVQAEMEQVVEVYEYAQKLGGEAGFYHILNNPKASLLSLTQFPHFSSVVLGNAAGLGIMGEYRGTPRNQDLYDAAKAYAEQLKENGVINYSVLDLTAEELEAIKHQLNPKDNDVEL

B1: pP11 peptide (RSV P C-terminal 11-mer with O-phosphoserines at 232 and 237) (peptide)
peptide: D[pS]DNDL[pS]LEDF
notes: C-terminal 11 residues of RSV phosphoprotein P with Ser232 and Ser237 as O-phosphoserines; source: bought: GeneCust (synthetic peptide, >95% purity)

How the values were obtained:
RSV NNTD = target: T2, RSV NNTD (Human respiratory syncytial virus A, UniProt P03418); experiment: NMR titration of 15N-labeled NNTD (1H-15N HSQC chemical shift perturbations); type: binding; settings: 20 mM MES pH 6.5, 250 mM NaCl, 20 °C; single site model; mean of 26 individual values; read-out: mean Kd from residue-specific Kds
T2 construct: The N-terminal domain NNTD (residues 31–252), containing a C-terminal 6x histidine tag; 6xHis (C); made in house; host or cells: E. coli BL21(DE3)
Text: Here, as P protein is constitutively phosphorylated on Ser232 and Ser237 residues in cells, we first investigated the impact of phosphorylation on the affinity of the NNTD-PCtail complex. We performed an NMR titration experiment by adding increasing amounts of pP11 peptide, where Ser232 and Ser237 residues were replaced by O-phosphoserines (pSer, Figure 1A), to a solution of ^15N-labeled NNTD, and measured 2D ^1H-^15N HSQC spectra (Figure 2A). We worked in the same buffer as with P12. At pH 6.5, the pSer sidechains are expected to be mostly negatively charged. Addition of pP11 induced perturbations in the HSQC spectrum of NNTD, in particular chemical shift perturbations (CSPs). […] We measured combined ^1H and ^15N amide CSPs (Equation (1)) for NNTD signals in a fast chemical exchange regime, i.e., signals that shifted in the spectrum without broadening at intermediate titration points (e.g., Ile129 in Figure 2A). Significant CSPs were located in and around the P-binding pocket, confirming that pP11 binds to the previously determined P-binding epitope on NNTD (Figure 2B,C). […]
Overall, signals of bound NNTD were broader than those of unbound NNTD (Figure 2A). […] From chemical shift differences measured for these residues we determined an exchange rate kex of ~800 s^−1 (from Equation (3)) between free and bound NNTD, which indicates a fast dynamic process. […]

RSV N-RNA complex = target: T3, RSV N-RNA complex (Human respiratory syncytial virus A, UniProt P03418); experiment: Fluorescence polarization inhibition of N-RNA binding to fluorescent probes; settings: Ki, probe BCN11EE, [N-RNA] 1 µM; IC50-to-Ki server
T3 construct: Full-length N was produced by co-expression with the C-terminal domain of RSV P protein in E. coli BL21(DE3); made in house; host or cells: E. coli BL21(DE3), co-transformed with pET-N and pGEX-P(161–241)
Text: We next performed inhibition experiments for the F11-(N-RNA) complex by M76 (Figure 4B). FP values decreased with increasing competitor concentration. At saturation, FP nearly reached the value of free F11, showing that the F11 peptide could be nearly completely displaced. Since the same concentration range was used for NNTD and N-RNA, poor solubility of M76 can be ruled out to explain the saturation observed before complete displacement of F11 in the presence NNTD (Figure 3C). This reinforces the hypothesis of a second binding site on NNTD, outside the canonical P-binding site. […]
To probe the potency of M76 as an inhibitor, we carried out competition experiments with the M76 molecule and several BCNn peptides. M76 was able to displace the fluorescent probes from N-RNA, and inhibition curves were obtained (Figure 8E). Since we used different N concentrations to have similar dynamic ranges of FP for the series of fluorescent peptides, we cannot directly compare M76 IC50s. However, Kis may be compared.
Fluorescence polarization measurements were carried out on a Paradigm Detection Platform (Beckman Coulter, Brea, CA, USA) operating with a microplate reader, a fluorescein detection cartridge (excitation range 485/20 nm, emission range 535/25 nm for both parallel and perpendicular components) and the SpectraMax Pro 6.1 software (Molecular Devices, San Jose, CA, USA). Samples were placed in polystyrene black flat bottom 96-well microplates (Cellstar, Greiner bio-one, Frickenhausen, Germany) with 20 µL final volume in each well. If not stated otherwise, the final concentration of fluorescent ligands was 200 nM. The buffer was either 20 mM MES pH 6.5, salt-free or with 250 mM NaCl, or 20 mM Tris pH 8.0 salt-free or with 100 mM NaCl, supplemented with 0.01% Brij-35. Mixing was done using the corresponding plate reader option. The temperature was set to 20 °C. Data were recorded in top reading mode. Measurements were done in triplicate and after an incubation time of 30 min, if not indicated otherwise. Fluorescence polarization (FP) in mFP units was determined from the parallel (I∥) and perpendicular (I⊥) components of the emitted light according to Equation (4). A grating factor G of 1.2 was determined using 1 nM fluorescein in 1 mM NaOH and assuming a theoretical FP of 27 mFP [48]. Background signal was measured from wells containing only buffer, and the mean value was subtracted from each I∥ and I⊥ component. (4) FP (mP)=1000×(I∥−G∗I⊥)/(I∥+G×I⊥)
To assess inhibition of a complex between a fluorescent probe and N protein by peptides or the M76 molecule, the concentration of N was set to work with an FP range comprised between FPmin and ~80% FPmax. Peptides were added from 1 or 2 mM stock solution in water at neutral pH. M76 was added from 10 or 20 mM stock solutions in ethanol or in DMSO. […] Inhibition data were fitted with Origin 7, and in parallel with the Excel solver module. All data were compatible with an absence of cooperativity. FPmax and FPmin were fitted, and the maximal inhibition %i,max was set to 100%. (11) %i=100×[1−(FP−FPmin)/(FPmax−FPmin)] (12) %i=%i,max×[inhibitor]/[inhibitor]+IC50
Inhibition constants Ki were calculated on the IC50-to-Ki converter for a protein-ligand-inhibitor system (https://bioinfo-abcc.ncifcrf.gov/IC50_Ki_Converter/index.php, accessed on 24 August 2022), assuming a competitive mechanism (Equation (13)). This tool takes into account the free concentrations of protein and ligand. (13) Ki=(IC50−[protein]/2)/([peptide]/Kd+1)

[1] = target: T1, RSV N-RNA complex (full-length N …); experiment: fluorescence polarisation; competition: unlabeled pP11 varied against 200 nM BCN_(11EE) on 1 µM N-RNA; Tris pH 8 buffer; Hill equation; Ki from the IC50-to-Ki server; settings: both partners purified

Row | Molecule | Kd (RSV NNTD) | Ki (RSV N-RNA complex) | IC50 [1]
1 | CC(C)C[C@H](NC(=O)[C@H](COP(=O)(O)O)NC(=O)[C@H](CC(C)C)NC(=O)[C@H](CC(=O)O)NC(=O)[C@H](CC(N)=O)NC(=O)[C@H](CC(=O)O)NC(=O)[C@H](COP(=O)(O)O)NC(=O)[C@@H](N)CC(=O)O)C(=O)N[C@@H](CCC(=O)O)C(=O)N[C@@H](CC(=O)O)C(=O)N[C@@H](Cc1ccccc1)C(=O)O [pP11] (H-D[pS]DNDL[pS]LEDF-OH) | 17 ± 4.5 µM | 1400 nM | 
2 | B1 |  |  | 6.9 ± 1.2 µM
